Experimental data from ChEMBL document CHEMBL5726641, “Inhibitors of lysine methyl transferase” (2017).

target: Histone-lysine N-methyltransferase EZH2 (Homo sapiens, UniProt Q15910, Y641F); experiment: Biological Assay: EZH2 Histone Methyl Transferase Assay: The effectiveness of compounds of the present invention as inhibitors of histone methyl transferases can be readily tested by assays known to those skilled in the art. For example, in vitro histone methyl transferase assays may be conducted with a relevant purified histone methyl transferase and an appropriate synthetic substrate to determine the inhibitory activity of the compounds. Assays for inhibition of EZH2 by the instant compounds were performed in 384-well plates with reaction mixtures containing 350 nM of histone peptide substrate (ATKAAR-K(Me2)-SAPATGGVKKPHRYRPG-GK(Biotin), 500 nM S-[methyl-3H]adenosyl-L-methionine (55-85 Ci/mmol), 50 mM Tris-HCl (pH 9.0), 50 mM NaCl, 1 mM dithiothreitol, Tween-20 at 0.01% and fatty-acid free bovine serum albumin at 0.01%, and recombinant EZH2-641F complex (EZH2 Y641F/EED/SUZ12/RbAp48/AEBP2) at 5 nM (>98% purity, BPS Bioscience) or 15 nM (50% purity, in-house). Reaction mixtures were incubated at room temperature for 3 hours, and the reactions were terminated by 0.005% poly-L-lysine solution in 20 mM Tris-HCl (pH 7.5) and 150 mM NaCl. Reaction products were captured by binding to strepavidin-conjugated imaging beads. Incorporation of radioactive methyl group into the histone peptide substrate was determined in Leadseeker (GE Healthcare) by means of scintillation proximity assay.
Sequence (Q15910 whole entry Y641F): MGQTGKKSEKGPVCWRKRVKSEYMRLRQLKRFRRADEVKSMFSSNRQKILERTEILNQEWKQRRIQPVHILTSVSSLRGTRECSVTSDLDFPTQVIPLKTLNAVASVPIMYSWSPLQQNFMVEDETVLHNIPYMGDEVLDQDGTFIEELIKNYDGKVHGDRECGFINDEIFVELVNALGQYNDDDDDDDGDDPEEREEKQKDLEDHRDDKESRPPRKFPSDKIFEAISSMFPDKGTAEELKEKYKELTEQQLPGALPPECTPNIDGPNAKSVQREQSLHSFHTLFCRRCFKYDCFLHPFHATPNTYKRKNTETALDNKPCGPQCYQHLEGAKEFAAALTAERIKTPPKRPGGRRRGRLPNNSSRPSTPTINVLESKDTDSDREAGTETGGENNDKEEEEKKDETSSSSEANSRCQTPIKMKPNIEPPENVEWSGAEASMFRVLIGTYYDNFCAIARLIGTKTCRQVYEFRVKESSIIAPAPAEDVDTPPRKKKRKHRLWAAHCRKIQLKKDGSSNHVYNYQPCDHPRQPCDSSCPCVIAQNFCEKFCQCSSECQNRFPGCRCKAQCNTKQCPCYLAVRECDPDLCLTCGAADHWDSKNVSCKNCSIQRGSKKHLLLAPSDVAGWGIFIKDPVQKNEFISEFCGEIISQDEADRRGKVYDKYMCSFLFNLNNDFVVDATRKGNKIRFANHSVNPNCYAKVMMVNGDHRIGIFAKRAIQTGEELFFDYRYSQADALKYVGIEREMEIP

`CCCc1cc(C)[nH]c(=O)c1CNC(=O)c1cc2c(c(-c3ccc(N4CCNCC4)nc3)c1)OC(C)(C(C)C)C2` (centres undefined) and `C=C(C)C1(C)Cc2cc(C(=O)NCc3c(CCC)cc(C)[nH]c3=O)cc(-c3ccc(N4CCNCC4)nc3)c2O1` (centres undefined) cannot be ordered by IC50: under 0.5 µM for the first, under 0.5 µM for the second.

`C=C(C)C1(C)Cc2cc(C(=O)NCc3c(C)cc(C)[nH]c3=O)cc(-c3ccc(N4CCNCC4)nc3)c2O1` (centres undefined) and `C=C(C)C1(C)Cc2cc(C(=O)NCc3c(CCC)cc(C)[nH]c3=O)cc(-c3cnc(N4CCNCC4)nc3)c2O1` (centres undefined) cannot be ordered by IC50: under 0.5 µM for the first, under 0.5 µM for the second.

`Cc1cc(C)c(CNC(=O)c2cc3c(c(C(F)(F)F)c2)OC(C)(C)C3)c(=O)[nH]1` and `COc1ccc(-c2cc(C(=O)NCc3c(C)cc(C)[nH]c3=O)cc3c2OC(C)(C(C)C)C3)cn1` (centres undefined) cannot be ordered by IC50: over 1 µM for the first, over 1 µM for the second.

`Cc1cc(C)c(CNC(=O)c2cc(Br)c3c(c2)OC/C=C\CO3)c(=O)[nH]1` and `COc1ccc(-c2cc(C(=O)NCc3c(C)cc(C)[nH]c3=O)cc3c2OCC3(C)C)cn1` cannot be ordered by IC50: over 1 µM for the first, over 1 µM for the second.

`CCC1COc2cc(C(=O)NCc3c(C)cc(C)[nH]c3=O)cc(-c3ccc(N4CCNCC4)nc3)c2O1` (centres undefined) showed an IC50 of over 1 µM.
